Assay results reported in ChEMBL document CHEMBL1151704, “Nicotinic acid receptor agonists” (J Med Chem, 2008).

How the values were obtained:
Rattus norvegicus = species on record: Rattus norvegicus; test: Reduction of plasma free fatty acid in Sprague-Dawley rat; type: functional
[1] = Therapeutic index, ratio of ED50 for plasma free fatty acid in Sprague-Dawley rat to ED50 for vasodilation in mouse; details: read-out: Ratio ED50
[2] = target: Hydroxycarboxylic acid receptor 2 (Homo sapiens, UniProt Q8TDS4); test: Activity at GPR109a assessed as inhibition of forskolin-stimulated cAMP production; type: functional
[3] = target: Hydroxycarboxylic acid receptor 3 (Homo sapiens, UniProt P49019); test: Activity at GPR109b assessed as inhibition of forskolin-stimulated cAMP production; type: functional
Chain of Hydroxycarboxylic acid receptor 3 (P49019 whole entry): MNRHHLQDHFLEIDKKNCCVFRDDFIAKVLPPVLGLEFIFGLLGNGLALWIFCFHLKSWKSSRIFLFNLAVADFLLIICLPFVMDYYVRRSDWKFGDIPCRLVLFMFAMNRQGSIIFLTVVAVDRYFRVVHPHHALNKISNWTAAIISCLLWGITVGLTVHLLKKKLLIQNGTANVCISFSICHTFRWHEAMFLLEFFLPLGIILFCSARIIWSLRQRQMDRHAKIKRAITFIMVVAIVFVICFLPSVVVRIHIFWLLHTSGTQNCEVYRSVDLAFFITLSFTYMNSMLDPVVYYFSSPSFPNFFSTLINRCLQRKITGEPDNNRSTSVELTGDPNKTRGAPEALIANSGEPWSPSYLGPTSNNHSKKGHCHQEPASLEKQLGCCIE

Chain of Hydroxycarboxylic acid receptor 2 (Q8TDS4 whole entry): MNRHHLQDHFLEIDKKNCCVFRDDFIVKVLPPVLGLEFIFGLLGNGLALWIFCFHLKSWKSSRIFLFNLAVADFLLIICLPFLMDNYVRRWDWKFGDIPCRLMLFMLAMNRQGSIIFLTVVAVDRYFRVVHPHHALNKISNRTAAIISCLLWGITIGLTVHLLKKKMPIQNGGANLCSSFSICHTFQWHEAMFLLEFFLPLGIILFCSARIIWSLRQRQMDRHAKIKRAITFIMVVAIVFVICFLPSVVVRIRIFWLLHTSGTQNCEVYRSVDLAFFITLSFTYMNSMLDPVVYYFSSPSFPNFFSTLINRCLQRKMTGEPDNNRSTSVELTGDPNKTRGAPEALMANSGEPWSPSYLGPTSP

Structure (SMILES)	ED50 (Rattus norvegicus)	selectivity ratio [1]	EC50 [2]	IC50 [3]	IC50 [2]
O=C(CCc1nc(-c2ccc(O)cn2)no1)Nc1ccccc1C(=O)O	9 mg/kg	> 70	–	–	–
CC(C)n1nnc2cc(C(=O)O)ccc21	–	–	400 nM	–	–
O=C(CCc1nc(-c2ccc(O)cc2)no1)Nc1ccccc1C(=O)O	9 mg/kg	> 70	–	–	–
CC1(c2ccccc2)OC(C(=O)O)=CC1=O (configuration not stated) [ACIFRAN]	–	–	–	3000 nM	500 nM
